# Reference: article PMC2410169, “N-hexanoyl-sphingomyelin potentiates in vitro doxorubicin cytotoxicity by enhancing its cellular influx” (British Journal of Cancer, 2004)
# Like-named read-outs stand apart in the source and are kept apart here.
# Tests used:
# [1] = tested on: BAEC; format: cell-based, bovine; conditions: for Effect on doxorubicin uptake (in words): assay as for C6-SM, Table 1
# Procedure: (§1) For intracellular doxorubicin measurements, cells were cultured in flat-bottom 96-well plates. At confluence, cells were changed to a serum-free medium and exposed to 50 μM doxorubicin during 60 min (unless indicated otherwise). After washing with ice-cold PBS, cells were lysed in 1% (w v^−1) Triton X-100 in water. Native fluorescence intensities were then measured by a Perkin-Elmer Victor Wallac II fluorescence microplate reader, using λex 485 nm and λem 535 nm filters. Additional probes and drugs that were tested for cellular uptake during 60 min incubations, either in the absence or presence of lipid, were hydrazide-AF488 (35 μM, λex 485 nm, λem 535 nm), sulphorodamine-101 (400 μM, λex 355 nm, λem 620 nm), propidium iodide (300 μM, λex 355 nm, λem 535 nm), o-phtaldialdehyde (1 mM, λex 485 nm, λem 535 nm), topotecan (30 μM, λex 355 nm, λem 535 nm), epirubicin (50 μM, λex 485 nm, λem 535 nm), bisbenzimidine (10 μM, λex 355 nm, λem 460 nm), camptothecin (30 μM, λex 355 nm, λem 460 nm), daunorubicin (25 μM, λex 485 nm, λem 535 nm) and idarubicin (20 μM, λex 485 nm, λem 535 nm).
# [2] = tested on: A431 (epidermoid carcinoma); test: Cellular doxorubicin accumulation, fluorimetry of cell lysates; format: cell-based, human; conditions: 50 μM doxorubicin, 60 min
# Procedure: as §1
# [3] = tested on: KB (oesophagal carcinoma); test: as above; format: cell-based, human; conditions: 50 μM doxorubicin, 60 min
# Procedure: as §1
# [4] = tested on: MCF-7 (mammary adenocarcinoma); test: as above; format: cell-based, human; conditions: 50 μM doxorubicin, 60 min
# Procedure: as §1
# [5] = tested on: control renal fibroblasts; test: Cellular doxorubicin accumulation in control kidney fibroblasts; format: cell-based, mice; conditions: Table 2, C6-SM 10 μM, 60 min
# Procedure: (§2) The following cell types were cultured in Dulbecco's modified Eagle's medium (DMEM) containing 10% (v v^−1) foetal calf serum: primary bovine aortic endothelial cells (BAEC; passage 14–19), kindly provided by Dr A Haimovitz-Friedman (Memorial Sloan-Kettering Cancer Center, New York City NY, USA); MCF-7, KB and A431 carcinoma cells, purchased from the American Type Culture Collection (Manassas VA, USA); SV40 large-T antigen-immortalised kidney fibroblasts from Mrp1/Mdr1a/Mdr1b triple knockout mice and control renal fibroblasts ([Wijnholds et al, 2000]; kindly provided by Dr AH Schinkel, The Netherlands Cancer Institute, Amsterdam). […] All culture media were supplemented with 100 U ml^−1 penicillin, 100 μg ml^−1 streptomycin and 4 mM L-glutamine. For intracellular doxorubicin measurements, cells were cultured in flat-bottom 96-well plates. […] After washing with ice-cold PBS, cells were lysed in 1% (w v^−1) Triton X-100 in water. Native fluorescence intensities were then measured by a Perkin-Elmer Victor Wallac II fluorescence microplate reader, using λex 485 nm and λem 535 nm filters.
# [6] = tested on: kidney fibroblasts from Mrp1/Mdr1a/Mdr1b triple knockout mice; test: Cellular doxorubicin accumulation in ABC-transporter knockout fibroblasts; format: cell-based
# Procedure: as §2
# [7] = tested on: A431 cells; test: Cell viability, MTT assay; format: cell-based, human; conditions: for EC50: Homo sapiens, 60 min exposure, 48 h further culture, read-out: Doxorubicin EC50
# Procedure: After centrifugation (3000 rpm, 10 min) supernatants were removed.
# [8] = tested on: BAEC; test: Plasma membrane integrity: uptake of fluid phase marker hydrazide-AF488; format: cell-based, bovine; conditions: 10 μM C6-SM
# Procedure: Confluent and serum-free BAEC were incubated for 120 min in the presence of C6-SM and 175 μM of the membrane impermeant fluid phase marker hydrazide-AF488. After washing, cells were lysed in PBS containing 1% (w v^−1) Triton X-100 and fluorescence was measured at λex 485 nm and λem 535 nm. […] All data were corrected for protein contents, as determined with the BCA assay ([Smith et al, 1985]).
# [9] = tested on: BAEC; test: Clathrin-mediated endocytosis: AF488-transferrin uptake; format: cell-based, bovine; conditions: 10 μM C6-SM, 120 min
# Procedure: (§3) To monitor clathrin- and raft-mediated endocytic activity, confluent BAEC were allowed to take up AF488-transferrin (150 μg ml^−1) or AF488-CTB (75 μg ml^−1), respectively. Incubations were performed under serum-free conditions in the presence of 10 μM C6-SM during 120 min. Cells were then washed and lysed in PBS containing 1% (v v^−1) Triton X-100. Fluorescence was then measured at λex 485 nm and λem 535 nm.
# [10] = tested on: BAEC; test: Raft-mediated endocytosis: AF488-CTB uptake; format: cell-based, bovine; conditions: 10 μM C6-SM, 120 min
# Procedure: as §3
# [11] = tested on: BAEC
# Procedure: (§4) For viability assessment, cells were cultured in flat-bottom 96-well plates. After experimental treatments, 100 μg of the mitochondrial dehydrogenase substrate MTT was added to each well ([Carmichael et al, 1987]). Cells were then incubated for 60 min at 37°C. After centrifugation (3000 rpm, 10 min) supernatants were removed. The precipitated blue formazan products were then dissolved in 100 μl DMSO and absorbencies were read in a Bio-Tek Instruments EL 340 photospectrometric microplate reader at 540 nm. Background absorbencies were subtracted and values from untreated control cells were set at 100% viability.
# (§5) After washing away remaining extracellular drug and lipid, cells were cultured for another 48 h. Viability was then assessed by the MTT assay, which relies on the fact that only mitochondria of viable cells have the capacity to convert the MTT substrate ([Carmichael et al, 1987]).
# [12] = tested on: BAEC; test: cells; conditions: Bos taurus
# Procedure: as §4, §5
# [13] = tested on: BAEC; test: Cellular uptake of fluorescent drugs and probes with or without C6-SM; format: cell-based, bovine; conditions: 10 μM C6-SM, 60 min
# Procedure: as §1
# [14] = Lipophilicity: 1-octanol/water partitioning; format: physicochemical; conditions: 1-octanol/water partition ratio
# Procedure: Partitioning of 10–50 μM drug or probe was monitored in a two-phase system consisting of 1 ml 1-octanol and 1 ml water. After addition of the compound, tubes were vortexed and centrifuged (3000 rpm, 5 min, 20°C). Aliquots of both the organic and the aqueous phases were taken for fluorimetric quantification, as described under Cellular drug accumulation. As a measure of lipophilicity, the 1-octanol/water partitioning ratio was calculated for each compound and expressed on a log scale ([Washington et al, 2001]).
# [15] = 10 μM lipid analogue with 50 μM doxorubicin, 60 min, control = no lipid, no ethanol, n=3
compound,measurement,setting,value
CCCCCCCCCC(=O)NC(CN1CCOCC1)C(O)c1ccccc1 (racemic) [PPMP],Doxorubicin (% of control±s.d.),"[1]; Table 4, PPMP 30 μM, 96 h pretreatment, no C6-SM",166.5±22.5 % of control
"CCCCCCCCCCCCC/C=C/C(O)C(COP(=O)([O-])OCC[N+](C)(C)C)NC(C)=O (stereo not drawn) [C2-sphingomyelin, N-acetyl-sphingomyelin]",Doxorubicin (% of control±s.d.),[1]; [15],129.6±19.6 % of control
same,Effect on doxorubicin uptake (in words),[1],moderate effect
"CCCCCCCCCCCCCC=CC(O)C(COP(=O)([O-])OCC[N+](C)(C)C)NC(=O)CCCCC (stereo not drawn) [C6-SM, N-hexanoyl-sphingomyelin]",C6-SM concentration at which the plateau in doxorubicin-uptake enhancement and cytotoxicity is reached,[1],about 8 μM
same,Enhanced doxorubicin uptake after washing away C6-SM not taken up by the cells,[1],remained
same,Increase of intracellular doxorubicin over control levels,"[1]; 10 μM C6-SM, 50 μM doxorubicin, incubation periods of 15–60 min",up to 300%
same,Doxorubicin (% of control±s.d.),[1]; [15],328.3±24.4 % of control
same,Lipid concentration giving a significant increase in drug uptake,"[1]; 50 μM doxorubicin, 60 min",2 µM
same,Doxorubicin (% of control±s.d.),"[1]; Table 2, C6-SM 10 μM + ATP depletion",410.9±157.0 % of control
same,Doxorubicin (% of control±s.d.),"[1]; Table 2, C6-SM 10 μM + MK571 12.5 μM",323.3±23.0 % of control
same,Doxorubicin (% of control±s.d.),"[1]; Table 2, C6-SM 10 μM + PSC833 5 μM",278.1±40.7 % of control
same,Doxorubicin (% of control±s.d.),"[1]; Table 2, C6-SM 10 μM alone, 60 min, n=3",369.0±113.0 % of control
same,Doxorubicin (% of control±s.d.),"[1]; Table 4, C6-SM 10 μM after CDX 10 mM, 30 min",264.7±72.1 % of control
same,Doxorubicin (% of control±s.d.),"[1]; Table 4, C6-SM 10 μM after PPMP 30 μM, 96 h",340.7±78.6 % of control
same,Doxorubicin (% of control±s.d.),"[1]; Table 4, C6-SM 10 μM after bSMase 200 mU ml^−1, 2 h",386.2±74.7 % of control
same,Doxorubicin (% of control±s.d.),"[1]; Table 4, C6-SM 10 μM, no pretreatment, n=3",353.3±62.6 % of control
same,Maximum increase in doxorubicin uptake over control values,"[1]; at 6 μM C6-SM, 50 μM doxorubicin, 60 min",300%
same,C6-SM-stimulated doxorubicin uptake under conditions that block endocytosis,[1]; cells at 4°C or depleted for ATP (sodium azide and deoxyglucose),remained unaffected
same,Active concentrations,[1]; doxorubicin uptake enhancement,2 to 6 µM
same,Drug uptake-enhancing effect after removal of membrane-inserted C6-SM,"[1]; hydrolysis by exogenous bSMase or BSA back-exchange, not shown",strongly diminished
same,Enhanced uptake of doxorubicin,[1]; low micromolar amounts of lipid (abstract),up to 300%
same,Concentration-dependent C6-SM effect on doxorubicin accumulation compared with BAEC,[2],Comparable results
same,Concentration-dependent C6-SM effect on doxorubicin accumulation compared with BAEC,[3],Comparable results
same,Concentration-dependent C6-SM effect on doxorubicin accumulation compared with BAEC,[4],Comparable results
same,Doxorubicin (% of control±s.d.),[5],331.8±50.2 % of control
same,Increase compared to doxorubicin uptake in the absence of the lipid analogue,[6]; like in normal fibroblasts,three- to four-fold increase
same,Increase in drug sensitivity,"[7]; A431, with C6-SM vs none",14 fold
same,Hydrazide-AF488 uptake compared to 100% control uptake,[8],97.4±18.2%
same,Transferrin uptake compared to 100% uptake under control conditions,[9],67±36%
same,CTB uptake compared to 100% uptake under control conditions,[10],80±23%
same,Toxicity of C6-SM itself,[11],virtually nontoxic
same,Increase in doxorubicin sensitivity,"[11]; BAEC, 10 μM C6-SM vs none",seven-fold increase in sensitivity
CCCCCCCCCCCCC/C=C/[C@@H](O)[C@H](CO)NC(=O)CCCCC [C6-ceramide],Doxorubicin (% of control±s.d.),[1]; [15],105.6±6.5 % of control
same,Effect on doxorubicin uptake (in words),[1],little or no effect
"CCCCCC(=O)OCC(COP(=O)([O-])OCC[N+](C)(C)C)OC(=O)CCCCC (stereo not drawn) [C6-phosphatidylcholine, dihexanoyl-phosphatidylcholine]",Doxorubicin (% of control±s.d.),[1]; [15],101.0±28.2 % of control
same,Effect on doxorubicin uptake (in words),[1],completely without effect
"CCCCCCCCCCCCC/C=C/[C@@H](O)[C@H](COP(=O)(O)O)NC(=O)CCCCCCC [C8-ceramide 1-phosphate, C8-ceramide-1-phosphate]",Doxorubicin (% of control±s.d.),[1]; [15],116.5±20.6 % of control
same,Effect on doxorubicin uptake (in words),[1],little or no effect
"COc1cccc2c1C(=O)c1c(O)c3c(c(O)c1C2=O)C[C@@](O)(C(=O)CO)C[C@@H]3O[C@H]1C[C@H](N)[C@H](O)[C@H](C)O1 [Doxorubicin, doxorubicin]",Doxorubicin (% of control±s.d.),"[1]; Table 2, ATP depletion (2-deoxy-D-glucose + sodium azide, 90 min), no C6-SM",108.2±46.7 % of control
same,Doxorubicin (% of control±s.d.),"[6]; Table 2, no C6-SM, relative to control fibroblasts",101.7±14.3 % of control
same,EC50,"[7]; A-431, A431, with C6-SM",0.13 µM
same,EC50,"[7]; A-431, A431, without C6-SM",1.8 µM
same,EC50,"[12]; read-out: Doxorubicin EC50 for BAEC toxicity, absence of C6-SM, 60 min exposure, 48 h further culture",4 µM
same,EC50,"[12]; read-out: Doxorubicin EC50 for BAEC toxicity, with 10 μM C6-SM, 60 min exposure, 48 h further culture",0.6 µM
CN(C)C(=O)CCSC(SCCC(=O)O)c1cccc(/C=C/c2ccc3ccc(Cl)cc3n2)c1 (stereo not drawn) [MK571],Doxorubicin (% of control±s.d.),"[1]; Table 2, MK571 12.5 μM, no C6-SM",103.5±30.2 % of control
C/C=C/C[C@@H](C)C(=O)[C@H]1C(=O)N[C@@H](C(C)C)C(=O)N(C)CC(=O)N(C)[C@@H](CC(C)C)C(=O)N[C@@H](C(C)C)C(=O)N(C)[C@@H](CC(C)C)C(=O)N[C@@H](C)C(=O)N[C@H](C)C(=O)N(C)[C@@H](CC(C)C)C(=O)N(C)[C@@H](CC(C)C)C(=O)N(C)[C@@H](C(C)C)C(=O)N1C [PSC833],Doxorubicin (% of control±s.d.),"[1]; Table 2, PSC833 5 μM, no C6-SM",76.0±15.6 % of control
"CCCCCCCCCCCCC/C=C/[C@@H](O)[C@@H](N)COP(=O)([O-])OCC[N+](C)(C)C [Sphingosinephosphorylcholine, sphingosylphosphorylcholine]",Doxorubicin (% of control±s.d.),[1]; [15],143.2±10.0 % of control
same,Effect on doxorubicin uptake (in words),[1],moderate effect
CC[C@@]1(O)C(=O)OCc2c1cc1n(c2=O)Cc2cc3ccccc3nc2-1 [camptothecin],Sensitivity towards C6-SM uptake enhancement,[13],mostly insensitive to C6-SM
COc1cccc2c1C(=O)c1c(O)c3c(c(O)c1C2=O)C[C@@](O)(C(C)=O)C[C@@H]3O[C@H]1C[C@H](N)[C@H](O)[C@H](C)O1 [daunorubicin],Sensitivity towards C6-SM uptake enhancement,[13],mostly insensitive to C6-SM
same,Lipophilicity compared with doxorubicin,[14],significantly higher
COc1cccc2c1C(=O)c1c(O)c3c(c(O)c1C2=O)C[C@@](O)(C(=O)CO)C[C@@H]3O[C@H]1C[C@H](N)[C@@H](O)[C@H](C)O1 [epirubicin],Sensitivity towards C6-SM uptake enhancement,[13],C6-SM sensitive
CC(=O)[C@]1(O)Cc2c(O)c3c(c(O)c2[C@@H](O[C@H]2C[C@H](N)[C@H](O)[C@H](C)O2)C1)C(=O)c1ccccc1C3=O [idarubicin],Sensitivity towards C6-SM uptake enhancement,[13],mostly insensitive to C6-SM
same,Lipophilicity compared with doxorubicin,[14],significantly higher
CC[C@@]1(O)C(=O)OCc2c1cc1n(c2=O)Cc2cc3c(CN(C)C)c(O)ccc3nc2-1 [topotecan],Sensitivity towards C6-SM uptake enhancement,[13],C6-SM sensitive
methyl-β-cyclodextrin [CDX],Doxorubicin (% of control±s.d.),"[1]; Table 4, CDX 10 mM, 30 min pretreatment, no C6-SM",113.0±28.1 % of control
sphingomyelin [Endogenous SM],Effect on doxorubicin uptake (in words),[1],does not work
